Source: publication PMC4906375, “Contribution of Amphipathicity and Hydrophobicity to the Antimicrobial Activity and Cytotoxicity of β-Hairpin Peptides” (ACS Infectious Diseases, 2016)
Values after ≈ are worked out from the molar mass of the structure shown. Where two headings read alike, the source gives them in different places. Residues, ends and D or L forms follow the SMILES beside them.

Legend:
[1] = Cytotoxicity, Alamar Blue (resazurin) assay; type: cell-based, human; conditions: human
Experimental: (§1) Cytotoxicity to HEK293 and HepG2 cells was determined using the Alamar Blue (resazurin) assay,[55],[56] with 24 h of incubation and either 1 or 10% serum concentration. Full assay details are included in the Supporting Information.
(§2) Cytotoxicity. Cytotoxicity to HEK293 and HepG2 cells was determined using the Alamar Blue (resazurin) assay,3, 4 For the assays supplemented with 1 % FBS as final concentration the cells were seeded one day prior to the assay (3,000 per 20 µL for HEK293 and 4,000 per 20 µL for HepG2) with DMEM + 2 % FBS. The compounds were prepared as described below, using DMEM with no FBS instead to give the final FBS concentration of 1 %.
(§3) The highest concentration the compounds were tested was 300 µg/mL. A dilution series of 1:3 fold steps in DMEM (GIBCOPInvitrogen, cat. no. 11995P073) + 10 % FBS was created (concentration range of 600 µg/mL – 0.28 µg/mL), and 20 µL of these 2x concentrated compound dilutions were added in duplicates to wells of a black wall, clear bottom 384Pwells cell culture plate. For the assays with 1 % FBS the compounds in 0 % FBS were added to the existing cell plates in 2 % FBS. 200 µM Tamoxifen (Sigma T5648) served as negative control and in addition a serial dilution of tamoxifen, starting at 200 µM (74 µg/mL), was included as a dose response control (1 in 2 dilution series for tamoxifen). For the assay with 10 % FBS, HepG2 cells were seeded at 5000 cells per well, in a volume of 20 µL in DMEM medium + 10 % of FBS and added to the 20 µL of compound solution (total volume of 40 µL), resulting in a final compound concentration range of 300 µg/mL to 0.14 µg/mL.
(§4) Cells were incubated together with the compounds for 20 h at 37 °C, 5 % CO2.
(§5) After the incubation, 5 µL of 100 µM (25 µg/mL) resazurin dissolved in PBS (final concentration was approximately 11 µM) was added to each well. The plates were then incubated for 3 h at 37 °C, 5 % CO2. The fluorescence intensity was read using the TECAN Infinite M1000 PRO with excitation/emission 560/590. The data was analysed by Graph Pad Prism software. Results are presented as the average percentage of control ± SD for each set of duplicate wells using the following equation: Cell survival % = (FISAMPLE – FINegative/FIUNTREATED –FINegative)*100. (100 µg/mL tamoxifen was set as 0 % survival, media

human erythrocytes [2] = conditions: red cells of human, 3 h
human erythrocytes [3] = assay: Hemolysis assay; conditions: 3 h, relative to 100% hemolysis by 1% Triton X-100
HEK293 cells = assay: Cytotoxicity, Alamar Blue (resazurin) assay; type: cell-based, human; conditions: HEK293; highest concentration (300 μM) tested
Experimental: as §1, §2, §3, §4, §5

HepG2 cells = assay: Cytotoxicity, Alamar Blue (resazurin) assay; type: cell-based, human; conditions: HepG2; highest concentration (300 μM) tested
Experimental: as §1, §2, §3, §4, §5

[4] = HEK293 cells, HEK293, 1% FBS, read-out: cytotoxicity HEK293 1% FBS
[5] = HEK293 cells, HEK293, 10% FBS, read-out: cytotoxicity HEK293 10% FBS
[6] = HepG2 cells, HepG2, 1% FBS, read-out: cytotoxicity HepG2 1% FBS
[7] = HepG2 cells, HepG2, 10% FBS, read-out: cytotoxicity HepG2 10% FBS

Structure (SMILES)	CC50 at 24 h [1, 4] [µg/mL]	CC50 at 24 h [1, 5] [µg/mL]	CC50 at 24 h [1, 6] [µg/mL]	CC50 at 24 h [1, 7] [µg/mL]	hemolysis (%) at 300 μg/mL (human erythrocytes [2]) [%]	hemolysis (%) at 300 μg/mL (human erythrocytes [3])	cytotoxicity at the highest concentration tested (HEK293 cells)	cytotoxicity at the highest concentration tested (HepG2 cells)
CC(C)[C@@H]1NC(=O)CNC(=O)[C@H](CC(N)=O)NC(=O)[C@H](CCCNC(=N)N)NC(=O)[C@H](Cc2ccc(O)cc2)NC(=O)[C@H](C(C)C)NC(=O)[C@@H]2CSSC[C@H](NC(=O)[C@H](C(C)C)NC(=O)[C@H](CCCNC(=N)N)NC1=O)C(=O)N[C@@H](Cc1ccc(O)cc1)C(=O)N[C@@H](CCCNC(=N)N)C(=O)N[C@@H](CCCNC(=N)N)C(=O)N[C@H](C(=O)N[C@@H](CC(N)=O)C(=O)O)CSSC[C@H](NC(=O)[C@H](Cc1ccccc1)NC(=O)CN)C(=O)N[C@@H](Cc1c[nH]c3ccccc13)C(=O)N[C@@H](Cc1ccc(O)cc1)C(=O)N[C@@H](C(C)C)C(=O)N2 [arenicin-3] (HELM PEPTIDE1{G.F.C.W.Y.V.C.V.Y.R.N.G.V.R.V.C.Y.R.R.C.N}$PEPTIDE1,PEPTIDE1,3:R3-20:R3|PEPTIDE1,PEPTIDE1,7:R3-16:R3$$$V2.0)	105 ± 1.8 (≈ 40 µM)	> 300	95.2 ± 4.1 (≈ 36.4 µM)	> 300	4.4 ± 1.1	–	–	–
CC(C)[C@@H]1NC(=O)[C@H](CCCNC(=N)N)NC(=O)[C@H](Cc2ccccc2)NC(=O)[C@@H](NC(=O)[C@H](Cc2c[nH]c3ccccc23)NC(=O)[C@H](CCCNC(=N)N)NC(=O)[C@@H](N)CCCNC(=N)N)CSSC[C@@H](C(=O)N[C@@H](CCCNC(=N)N)C(N)=O)NC(=O)[C@H](CCCCN)NC(=O)[C@H](CCCNC(=N)N)NC(=O)[C@H](Cc2ccc(O)cc2)NC(=O)[C@@H]2CSSC[C@H](NC1=O)C(=O)N[C@@H](Cc1ccc(O)cc1)C(=O)N[C@@H](CCCNC(=N)N)C(=O)NCC(=O)N[C@@H](Cc1ccccc1)C(=O)N2 [polyphemusin-1] (HELM PEPTIDE1{R.R.W.C.F.R.V.C.Y.R.G.F.C.Y.R.K.C.R.[am]}$PEPTIDE1,PEPTIDE1,4:R3-17:R3|PEPTIDE1,PEPTIDE1,8:R3-13:R3$$$V2.0)	36.6 ± 1.4 (≈ 14.9 µM)	188.5 ± 1.1 (≈ 76.8 µM)	36.5 ± 8.6 (≈ 14.9 µM)	254 ± 14.2 (≈ 104 µM)	–	–	–	–
[H][C@]12CSSC[C@]([H])(NC(=O)[C@]([H])([C@@H](C)CC)NC(=O)CNC(=O)[C@H](CCCNC(=N)N)NC(=O)[C@H](Cc3ccc(O)cc3)NC1=O)C(=O)N[C@@H](Cc1ccc(O)cc1)C(=O)N[C@@H](CCCNC(=N)N)C(=O)N[C@@H](CCCNC(=N)N)C(=O)N[C@H](C(=O)N[C@@H](CCCNC(=N)N)C(N)=O)CSSC[C@H](NC(=O)[C@H](Cc1c[nH]c3ccccc13)NC(=O)[C@@H](N)CCCCN)C(=O)N[C@@H](Cc1ccccc1)C(=O)N[C@@H](CCCNC(=N)N)C(=O)N[C@@H](C(C)C)C(=O)N2 [tachyplesin-1] (HELM PEPTIDE1{K.W.C.F.R.V.C.Y.R.G.I.C.Y.R.R.C.R.[am]}$PEPTIDE1,PEPTIDE1,3:R3-16:R3|PEPTIDE1,PEPTIDE1,7:R3-12:R3$$$V2.0)	94.7 ± 1.1 (≈ 41.8 µM)	> 300	65.7 ± 1.5 (≈ 29 µM)	> 300	27.8 ± 3.9	–	–	–
CC[C@H](C)[C@H](NC(=O)[C@@H](NC(=O)[C@@H]1CCCN1C(=O)[C@@H](NC(=O)[C@@H]1CCCN1C(=O)[C@H](CCCCN)NC(=O)[C@H](CCCCN)NC(=O)[C@H](CO)NC(=O)CN)C(C)C)[C@@H](C)CC)C(=O)N[C@@H](Cc1ccc(O)cc1)C(=O)N[C@H]1CSSC[C@@H](C(=O)N[C@@H](CCC(N)=O)C(=O)N[C@@H](CCCNC(=N)N)C(=O)N[C@@H](CCSC)C(N)=O)NC(=O)[C@H](CCCCN)NC(=O)CNC(=O)[C@H]([C@@H](C)O)NC(=O)[C@H](CCCNC(=N)N)NC(=O)[C@H](CCCNC(=N)N)NC(=O)[C@H](CC(N)=O)NC1=O [thanatin]	> 300	> 300	> 300	> 300	–	nonhemolytic	nontoxic	nontoxic
